Data reported in US12421228B2 (Mirati Therapeutics, Inc., priority 2019, dated 2025).

Key:
[1] = test system: PRC2-mediated histone H3 methylation in Pfeiffer cells (EZH2 A677G); assay: Tri-Methyl Histone H3 (Lys 27) sandwich ELISA in Pfeiffer cells; type: cell-based; conditions: Homo sapiens, 96 hours incubation, H3K27me3 ELISA, read-out: IC50 (nM), Inhibition of EZH2-mediated Histone H3 Trimethylation
Excerpt: The Pfeiffer cell line was established from a […] from a patient having metastatic diffuse large B-cell lymphoma (DLBCL). This cell line expresses a mutant form of the EZH2 enzyme (A677G) that results in enhanced EZH2 activity leading to increased methylation of histone H3 Lys27. Increased trimethylation of histone H3 Lys27 is believed to be implicated in tumorgenesis and poor clinical prognosis in lymphomas (McCabe et al., (2012) Nature 492:108-112).
Inhibition of PRC2-mediated histone H3 methylation by compounds of Formula (I) was measured by ELISA using a Tri-Methyl Histone H3 (Lys 27) Sandwich ELISA Kit (Cell Signaling Tech #7866C) in accordance with the manufacturer's instructions. Briefly, Pfeiffer cells were cultured in RPMI medium supplemented with 10% fetal bovine serum and 1% penicillin and 1% streptomycin in 96 well culture plates at 37° C. to a density of 8000 cells/90 μl/well and the cells were harvested. A series of 3-fold serial dilutions of each test compound of Formula (I) were prepared in RPMI medium and added to the cells at final concentrations ranging from […] to 0.15 nM. The plates were incubated at 37° C. for 96 hours.
After incubation, the cells were pelleted by centrifugation in a pre-cooled 4° C. rotor at 1,100 rpm for 10 min and the supernatant was removed by aspiration. The cell pellet was resuspended in 55 μl of Lysis Buffer (0.4M HCl) and incubated on ice with periodic shaking for 30 minutes. The lysed cells were subjected to centrifugation at 4,200 rpm for 10 min at 4° C. and the supernatant containing acid-soluble proteins was collected and the remainder discarded. The acid-soluble proteins were brought to a neutral pH by the addition of 20 μl of Neutralization Buffer (1 M Sodium phosphate, dibasic (pH 12.5), 2.5 mM DTT and 1 mM PMSF) and the neutralized lysates were analyzed by ELISA.
A 65 μl aliquot of each cell lysate was added to a well of a microwell strip, the microwells were sealed using tape and incubated either at 37° C. for two hours or at 4° C. overnight. After incubation, the tape was removed at the microwells were washed four times using 200 μl of 1× Wash Buffer. To each washed microwell, a 100 μl aliquot of an anti-trimethyl histone H3 Lys27 Detection Antibody solution was added and the microwells were incubated at 37° C. for one hour. The Detection Antibody solution was removed by aspiration and the wells were washed four times each using 200 μl of 1× Wash Buffer.
A 100 μl aliquot of an HRP-linked secondary antibody was added to each well, the wells were sealed with tape and incubated at 37° C. for 30 min. The HRP-linked secondary antibody solution was removed by aspiration and the wells were washed four times using 200 μl of 1× Wash Buffer. A 100 μl aliquot of a TMB substrate was added to each well, the wells were sealed with tape and incubated at 37° C. for 10 min or 25° C. for 30 min. The reaction was stopped by the addition of 100 μl aliquot of a STOP solution and the plate was shaken briefly. The degree of histone H3 trimethylation was determined using a spectrophotometric readout by measuring the absorbance at 450 nm and then calculating the amount of trimethylated histone H3. A=≤100 nM; B=>100 nM−≤500 nM; C=>500 nM and N.D.=not determined.

[2] = target: purified human, His-tagged PRC2 complex (Homo sapiens (Human), UniProt O75530); assay: Hot Spot HMT assay, inhibition of PRC2 enzymatic activity; type: biochemical; conditions: 10 nM PRC2 complex, 0.05 mg/ml core histone H3, 1 μM 3H-SAM, 1 hr at 30° C.; read-out: IC50, Inhibition of PRC2-mediated Enzymatic Activity
Chain of purified human, His-tagged PRC2 complex (Q15910 whole entry): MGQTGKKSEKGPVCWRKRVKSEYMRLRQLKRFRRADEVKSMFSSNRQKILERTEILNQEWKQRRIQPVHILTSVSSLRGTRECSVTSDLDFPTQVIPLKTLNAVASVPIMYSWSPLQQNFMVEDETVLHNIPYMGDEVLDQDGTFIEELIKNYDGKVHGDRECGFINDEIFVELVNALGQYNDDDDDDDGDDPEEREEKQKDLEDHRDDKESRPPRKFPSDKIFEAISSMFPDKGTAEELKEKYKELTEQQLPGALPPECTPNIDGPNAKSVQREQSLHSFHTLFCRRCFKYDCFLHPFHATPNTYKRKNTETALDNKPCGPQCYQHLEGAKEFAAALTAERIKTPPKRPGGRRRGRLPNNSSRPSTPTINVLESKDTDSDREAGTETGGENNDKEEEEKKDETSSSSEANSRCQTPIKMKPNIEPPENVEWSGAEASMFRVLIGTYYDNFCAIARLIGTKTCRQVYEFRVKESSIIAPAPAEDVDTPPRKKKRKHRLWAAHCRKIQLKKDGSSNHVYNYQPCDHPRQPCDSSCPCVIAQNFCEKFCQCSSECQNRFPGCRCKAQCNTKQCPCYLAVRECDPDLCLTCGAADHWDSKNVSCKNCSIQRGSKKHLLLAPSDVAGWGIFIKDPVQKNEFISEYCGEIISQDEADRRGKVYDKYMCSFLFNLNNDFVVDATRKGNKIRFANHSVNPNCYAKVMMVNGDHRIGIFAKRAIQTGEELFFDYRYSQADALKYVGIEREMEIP
Chain of purified human, His-tagged PRC2 complex (O75530 whole entry): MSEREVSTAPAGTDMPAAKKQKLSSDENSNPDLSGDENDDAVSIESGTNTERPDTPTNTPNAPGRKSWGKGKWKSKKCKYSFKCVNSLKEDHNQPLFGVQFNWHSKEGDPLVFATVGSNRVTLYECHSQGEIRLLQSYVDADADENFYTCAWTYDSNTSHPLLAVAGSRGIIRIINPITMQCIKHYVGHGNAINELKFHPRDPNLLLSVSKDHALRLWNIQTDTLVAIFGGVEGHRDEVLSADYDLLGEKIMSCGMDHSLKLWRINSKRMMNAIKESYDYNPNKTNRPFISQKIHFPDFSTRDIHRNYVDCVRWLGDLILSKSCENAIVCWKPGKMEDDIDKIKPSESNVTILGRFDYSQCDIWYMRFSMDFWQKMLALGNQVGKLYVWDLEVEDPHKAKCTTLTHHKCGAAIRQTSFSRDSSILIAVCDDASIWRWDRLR
Chain of purified human, His-tagged PRC2 complex (Q15022 whole entry partner): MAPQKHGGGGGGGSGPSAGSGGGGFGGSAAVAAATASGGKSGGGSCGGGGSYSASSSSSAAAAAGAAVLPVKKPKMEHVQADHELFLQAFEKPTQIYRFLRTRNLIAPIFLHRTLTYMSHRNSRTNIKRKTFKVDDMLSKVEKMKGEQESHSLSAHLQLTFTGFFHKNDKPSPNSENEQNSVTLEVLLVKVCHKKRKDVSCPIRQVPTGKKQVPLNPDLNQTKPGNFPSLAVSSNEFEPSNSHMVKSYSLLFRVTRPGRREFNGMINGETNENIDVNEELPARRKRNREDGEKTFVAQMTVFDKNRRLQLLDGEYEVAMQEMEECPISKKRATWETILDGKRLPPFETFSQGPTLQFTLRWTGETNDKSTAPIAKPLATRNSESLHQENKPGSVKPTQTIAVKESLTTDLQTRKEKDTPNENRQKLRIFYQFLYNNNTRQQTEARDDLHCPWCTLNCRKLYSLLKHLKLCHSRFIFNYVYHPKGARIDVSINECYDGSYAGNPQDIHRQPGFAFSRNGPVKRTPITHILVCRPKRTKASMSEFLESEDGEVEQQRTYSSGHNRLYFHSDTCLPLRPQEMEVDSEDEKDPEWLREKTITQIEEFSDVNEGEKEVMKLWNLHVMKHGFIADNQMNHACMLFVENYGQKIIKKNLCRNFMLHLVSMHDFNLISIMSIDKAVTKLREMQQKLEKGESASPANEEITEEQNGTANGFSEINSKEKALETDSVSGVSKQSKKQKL
Chain of purified human, His-tagged PRC2 complex (Q6ZN18 whole entry partner): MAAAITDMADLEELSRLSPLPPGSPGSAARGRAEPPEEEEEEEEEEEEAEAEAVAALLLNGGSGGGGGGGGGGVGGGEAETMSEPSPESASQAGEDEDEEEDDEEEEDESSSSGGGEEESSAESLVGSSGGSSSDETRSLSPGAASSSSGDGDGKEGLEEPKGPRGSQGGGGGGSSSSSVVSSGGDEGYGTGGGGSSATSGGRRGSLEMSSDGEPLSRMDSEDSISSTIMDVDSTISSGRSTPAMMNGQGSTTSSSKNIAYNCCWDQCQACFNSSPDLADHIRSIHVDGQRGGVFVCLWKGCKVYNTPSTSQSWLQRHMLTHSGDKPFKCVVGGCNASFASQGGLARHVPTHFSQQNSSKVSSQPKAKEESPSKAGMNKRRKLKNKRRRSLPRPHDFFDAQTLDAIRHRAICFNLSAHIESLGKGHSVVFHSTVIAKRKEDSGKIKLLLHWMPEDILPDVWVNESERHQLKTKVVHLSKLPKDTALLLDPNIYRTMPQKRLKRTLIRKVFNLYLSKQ
Chain of purified human, His-tagged PRC2 complex (Q09028 whole entry partner): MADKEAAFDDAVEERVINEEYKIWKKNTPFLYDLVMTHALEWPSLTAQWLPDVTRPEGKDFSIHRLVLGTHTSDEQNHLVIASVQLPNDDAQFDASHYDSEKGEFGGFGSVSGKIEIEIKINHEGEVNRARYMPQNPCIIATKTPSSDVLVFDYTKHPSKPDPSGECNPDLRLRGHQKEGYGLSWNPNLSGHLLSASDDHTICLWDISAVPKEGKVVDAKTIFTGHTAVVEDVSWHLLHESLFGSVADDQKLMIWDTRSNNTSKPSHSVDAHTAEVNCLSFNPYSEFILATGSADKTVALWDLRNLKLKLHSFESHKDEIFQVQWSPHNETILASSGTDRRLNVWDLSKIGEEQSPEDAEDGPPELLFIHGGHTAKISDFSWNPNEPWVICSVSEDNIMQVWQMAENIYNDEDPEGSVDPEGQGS
Method: Ten-point dose-response curves for compounds of the present invention were determined using a Hot Spot HMT assay (Reaction Biology Corp; see Horiuchi et al., Assay Drug Dev Technol. (2013) 4: 227-236 doi: 10.1089/adt.2012.480). The assay uses purified human, His-tagged PRC2 complex, including N-terminal His-tagged EZH2 enzyme, N-terminal Flag-tagged embryonic ectoderm development protein (EED), N-terminal His-tagged suppressor of zeste 12 (SUZ12), N-terminal His-tagged AEBP2, and N-terminal His-tagged RbAp48. In this assay, the transfer of the tritiated methyl group from radiolabeled S-adenosyl methionine (SAM) to purified core histone protein by EZH2 is quantitated after filtration to determine the activity of the core PRC2 complex in the presence and absence of compound.
Briefly, compounds of the present invention were solubilized in DMSO and a series of 10, three-fold serial dilutions were made for each compound in 15% DMSO. The initial starting concentration for the serial dilutions of each compound was 1.0 μM. Control samples lacking compound, EZH2 enzyme or various reaction components also were prepared and processed in parallel with compound test samples. SAH (S-(5-adenosyl)-L-homocysteine) was used as a positive control for assay validation.
An aliquot of each serial dilution of test compound was added to deep 384 well plate using Acoustic Technology instrument (Echo 550, LabCyte) containing reaction buffer (50 mM Tris-HCl (pH 8)), 0.01% Brij35, 1 mM EDTA, 1 mM DTT, 1 mM PMSF and 1% DMSO), 10 nM purified PRC2 complex and 0.05 mg/ml core histone H3 in a 5 μl volume. The reaction was mixed gently and then pre-incubated for 20 min at 30° C. The enzymatic reaction was initiated by adding 1 μM S-Adenosyl-L-[methyl-^3H]methionine and incubated for 1 hr at 30° C. After 1 hr, the reaction product was detected using a filter binding method and the amount of tritiated H3 core histone was quantitated using a scintillation counter. The IC50 value for each compound was determined from each 10-point dose-response curve using GraphPad Prism software and the results for compounds of present invention, including compounds of Formula (I) and Formula (II) are shown in Table 6. Key: A=<100 nM; B=>100 nM−<250 nM; and C=>250 nM.

[3] = test system: Karpas 422 cells (EZH2 Y641N); assay: Karpas 422 cell viability (Cell Titre Glo); type: cell-based; conditions: Homo sapiens, CTG viability, Day 4, Day 7 or Day 11 (time point not given), read-out: IC50 (nM), Inhibiting Proliferation of Cells Expressing an Activating Mutant Form of EZH2
Method: Karpas 422 cell line is a human B cell non-Hodgkin's lymphoma cell line established from a patient having DLBCL. This EZH2 heterozygotic cell line expresses a mutant form of EZH2 enzyme (Y641N) that increases histone H3 methylation and this mutation has been implicated in the tumorgenesis of lymphomas, such as DLBCL.
Karpas 422 cells (PHE cat no., 06101702) were cultured in RPMI medium supplemented with 20% fetal bovine serum and 1% penicillin/1% streptomycin and plated at a density of 1000 cells/90 μl/well in 96 well white assay plates. A dose response curve for compounds of the present invention was determined by adding a 10 μl aliquot of stock solutions of varying concentrations of compounds to the same medium in each well, over a concentration range of 10 μM using 3-fold dilutions to a final concentration of 1.5 nM. The plates were incubated at 37° C. for predetermined time periods, Day 4, Day 7, or Day 11, and the viability of the cells was measured using a CTG assay kit (Cell Titre Glo; Promega cat. no G7573) on Day 4 and Day 7 in accordance with the manufacturer's instructions.
For the viability assay for the Day 11 plates, the plates were subjected to centrifugation at 1100 rpm for five minutes on Day 7 and the supernatant was removed by aspiration. The cells were resuspended in 90 μl aliquot of the appropriate growth medium lacking the compound followed by addition of 10 μl of a 10× stock of the same compound at the same concentration. The viability of the Day 11 cells was measured using the CTG assay kit described above in accordance with the manufacturer's instructions. The IC50 values for each compound at each predetermined time point were calculated using Graph pad PRISM software and the results are shown in Table 8. A=≤250 nM; B=[…]−≤500 nM; C=>500 nM and N.D.=not determined.

Row | IC50 [1] | IC50 [2] | IC50 [3] | Structure (SMILES)
1 | 100 to 500 nM | < 100 nM | ≤ 250 nM | Cn1nc(C#N)cc1-c1cnc(NCc2c(F)ccc3c2CCO3)c2c[nH]c(=O)cc12 [Example 48]
2 | > 500 nM | > 250 nM | ≤ 250 nM | Cc1cc(-c2cnc(NCc3c(F)ccc4c3CCO4)c3cc[nH]c(=O)c23)n(C)n1 [Example 55, 8-(1,3-dimethyl-1H-pyrazol-5-yl)-5-(((5-fluoro-2,3-dihydrobenzofuran-4-yl)methyl)amino)-2,6-naphthyridin-1(2H)-one]
3 | ≤ 100 nM | < 100 nM | ≤ 250 nM | Cn1nc(C#N)cc1-c1cnc(NCc2c(F)ccc3c2CCO3)c2cnncc12 [Example 16, 5-(5-(((5-fluoro-2,3-dihydrobenzofuran-4-yl)methyl)amino)pyrido[3,4-d]pyridazin-8-yl)-1-methyl-1H-pyrazole-3-carbonitrile]
4 | ≤ 100 nM | < 100 nM | ≤ 250 nM | CCNCc1ccc(-c2cnc(NCc3c(F)ccc4c3CCO4)c3cnncc23)c(C)c1 [Example 20, 8-(4-((ethylamino)methyl)-2-methylphenyl)-N-((5-fluoro-2,3-dihydrobenzofuran-4-yl)methyl)pyrido[3,4-d]pyridazin-5-amine]
5 | > 500 nM | > 250 nM | > 500 nM | Cc1cc(-c2cnc(NCc3c(F)ccc4c3CCO4)c3ncncc23)n(C)n1 [Example 59, 5-(1,3-dimethyl-1H-pyrazol-5-yl)-N-((5-fluoro-2,3-dihydrobenzofuran-4-yl)methyl)pyrido[3,4-d]pyrimidin-8-amine]
6 | ≤ 100 nM | < 100 nM | ≤ 250 nM | CN(C)C(=O)c1cc(-c2cnc(NCc3c(F)ccc4c3CCO4)c3cnncc23)n(C)n1 [Example 15, 5-(5-(((5-fluoro-2,3-dihydrobenzofuran-4-yl)methyl)amino)pyrido[3,4-d]pyridazin-8-yl)-N,N,1-trimethyl-1H-pyrazole-3-carboxamide]
7 | > 500 nM | > 250 nM | 250 to 500 nM | COc1nccc2c(NCc3c(F)ccc4c3CCO4)ncc(-c3cc(C)nn3C)c12 [Example 54, 4-(1,3-dimethyl-1H-pyrazol-5-yl)-N-((5-fluoro-2,3-dihydrobenzofuran-4-yl)methyl)-5-methoxy-2,6-naphthyridin-1-amine]
8 | > 500 nM | > 250 nM | > 500 nM | COc1ccc2c(NCc3c(F)ccc4c3CCO4)ncc(-c3cc(C)nn3C)c2n1 [Example 52, 8-(1,3-dimethyl-1H-pyrazol-5-yl)-N-((5-fluoro-2,3-dihydrobenzofuran-4-yl)methyl)-2-methoxy-1,6-naphthyridin-5-amine]
9 | ≤ 100 nM | < 100 nM | ≤ 250 nM | NS(=O)(=O)c1ccc(-c2cnc(NCc3c(F)ccc4c3CCO4)c3cnncc23)cc1 [Example 1]
10 | ≤ 100 nM | < 100 nM | ≤ 250 nM | CNCc1ccc(-c2cnc(NCc3c(F)ccc4c3CCO4)c3cnncc23)c(C)c1 [Example 19, N-((5-fluoro-2,3-dihydrobenzofuran-4-yl)methyl)-8-(2-methyl-4-((methylamino)methyl)phenyl)pyrido[3,4-d]pyridazin-5-amine]
11 | > 500 nM | 100 to 250 nM | > 500 nM | Cc1cc(S(C)(=O)=O)ccc1-c1cnc(NCc2c(F)ccc3c2CCO3)c2cnccc12 [Example 31]
12 | 100 to 500 nM | < 100 nM | ≤ 250 nM | CN(C)Cc1ccc(-c2cnc(NCc3c(F)ccc4c3CCO4)c3cncnc23)cc1 [Example 23]
13 | ≤ 100 nM | > 250 nM | ≤ 250 nM | Cc1c(-c2cnc(NCc3c(F)ccc4c3CCO4)c3cnncc23)ccc(CN(C)C)c1F [Example 5]
14 | 100 to 500 nM | < 100 nM | ≤ 250 nM | CN(C)C(=O)c1cc(-c2cnc(NCc3c(F)ccc4c3CCO4)c3c[nH]c(=O)cc23)n(C)n1 [Example 47, 5-(1-(((5-fluoro-2,3-dihydrobenzofuran-4-yl)methyl)amino)-6-oxo-6,7-dihydro-2,7-naphthyridin-4-yl)-N,N,1-trimethyl-1H-pyrazole-3-carboxamide]
15 | 100 to 500 nM | > 250 nM | ≤ 250 nM | Cc1cc(-c2cnc(NCc3c(F)ccc4c3CCO4)c3cnc(OCCN(C)C)cc23)n(C)n1 [Example 44]
16 | ≤ 100 nM | 100 to 250 nM | ≤ 250 nM | CN(C)C(=O)c1ccc(-c2cnc(NCc3c(F)ccc4c3CCO4)c3cnncc23)cc1 [Example 9]
17 | ≤ 100 nM | < 100 nM | ≤ 250 nM | Cc1cc(-c2cnc(NCc3c(F)ccc4c3CCO4)c3cncnc23)n(C)n1 [Example 22, 8-(1,3-dimethyl-1H-pyrazol-5-yl)-N-((5-fluoro-2,3-dihydrobenzofuran-4-yl)methyl)pyrido[4,3-d]pyrimidin-5-amine]
